Data from patent publication US7745636B2, “Hepatitis C virus inhibitors” (Bristol-Myers Squibb Company, priority 2006, dated 2010).

Test system: HCV 1b-377-neo replicon cells
Assay: HCV Replicon assay, HCV 1b-377-neo replicon cells
Type: cell-based, HCV 1b genotype
Conditions: Hepatitis C virus, Table 2, read-out: Range (EC50 against HCV 1b)
Procedure: An HCV Replicon assay was utilized in the present disclosure, and was prepared, conducted and validated as described in commonly owned PCT/US2006/022197 and in O'Boyle et. al. Antimicrob Agents Chemother. 2005 April; 49(4):1346-53.
HCV 1b-377-neo replicon cells were used to test the currently described compound series as well as cells resistant to compound A due to a Y2065H mutation in NS5A (described in application PCT/US2006/022197). The compounds tested were determined to have more than 10-fold less inhibitory activity on cells resistant to compound A than wild-type cells indicating a related mechanism of action between the two compound series. Thus, the compounds of the present disclosure can be effective to inhibit the function of the HCV NS5A protein and are understood to be as effective in combinations as previously described in application PCT/US2006/022197 and commonly owned WO/O4014852. Further, the compounds of the present disclosure can be effective against the HCV 1b genotype. It should also be understood that the compounds of the present disclosure can inhibit multiple genotypes of HCV. […] In one embodiment compounds of the present disclosure are active against the 1a, 1b, 2a, 2b, 3a, 4a, and 5a genotypes.

SMILES | EC50 [nM]
COC(=O)N[C@H](C(=O)N1CCC[C@H]1c1ncc(-c2ccc(-c3ccc(-c4cnc([C@@H]5CCCN5C(=O)[C@@H](NC(=O)OC)C(C)C)[nH]4)cc3CO)cc2)[nH]1)C(C)C [Example M119, methyl((1S)-1-(((2S)-2-(5-(2-(hydroxymethyl)-4′-(2-((2S)-1-((2S)-2-((methoxycarbonyl)amino)-3-methylbutanoyl)-2-pyrrolidinyl)-1H-imidazol-5-yl)-4-biphenylyl)-1H-imidazol-2-yl)-1-pyrrolidinyl)carbonyl)-2-methylpropyl)carbamate] | 100 to 999
COC(=O)N[C@@H](C(=O)N[C@@H](C)c1ncc(-c2ccc(-c3cnc(-c4cnc([C@@H]5CCCN5C(=O)[C@H](NC(=O)OC)c5ccccc5)[nH]4)cn3)cc2)[nH]1)c1ccccc1 [Example 152j-28, methyl ((1R)-2-((2S)-2-(5-(5-(4-(2-((1S)-1-(((2R)-2-((methoxycarbonyl)amino)-2-phenylace-tyl)amino)eth-yl)-1H-imidazol-5-yl)phenyl)-2-pyrazinyl)-1H-imidazol-2-yl)-1-pyrrolidinyl)-2-oxo-1-phenylethyl)carbamate] | 0.001 to 0.999
COC(=O)N[C@@H](C(=O)N1CCC[C@H]1c1ncc(-c2ccc(-c3ccc(-c4cnc([C@@H]5CCCN5C(=O)[C@H](NC(=O)OC)c5ccccc5)[nH]4)nn3)nn2)[nH]1)c1ccccc1 [Example 153c-2, dimethyl (3,3′-bipyridazine-6,6′-diylbis(1H-imidazole-5,2-diyl(2S)-2,1-pyrrolidinediyl((1R)-2-oxo-1-phenyl-2,1-ethanediyl))) biscarbamate] | 1 to 99
COC(=O)N[C@@H](C(=O)N1CCC[C@H]1c1ncc(-c2cnc(-c3ncc(-c4cnc([C@@H]5CCCN5C(=O)[C@H](NC(=O)OC)c5ccccc5)[nH]4)cn3)nc2)[nH]1)c1ccccc1 [Example 153c-4, dimethyl (2,2′-bipyrimidine-5,5′-diylbis(1H-imidazole-5,2-diyl(2S)-2,1-pyrrolidinediyl((1R)-2-oxo-1-phenyl-2,1-ethanediyl))) biscarbamate] | 1000 to 10000
COC(=O)N[C@@H](C(=O)N[C@@H](C)c1ncc(-c2ccc(-c3ccc(-c4cnc([C@@H]5CCCN5C(=O)[C@H](NC(=O)OC)c5ccccc5)[nH]4)nn3)cc2)[nH]1)c1ccccc1 [Example 152j-14, methyl ((1R)-2-((2S)-2-(5-(6-(4-(2-((1S)-1-(((2R)-2-((methoxycarobnyl)amino)-2-phenylace-tyl)amino)eth-yl)-1H-imidazol-5-yl)phenyl)-3-pyridazinyl)-1H-imidazol-2-yl)-1-pyrrolidinyl)-2-oxo-1-phenylethyl)carbamate] | 1 to 99
COC(=O)N[C@@H](C)C(=O)N1CCC[C@H]1c1nc(-c2cnc(-c3ccc(-c4cnc([C@@H]5CCCN5C(=O)[C@H](C)NC(=O)OC)[nH]4)c(F)c3)nc2)c[nH]1 [Example D67, methyl ((1S)-2-((2S)-2-(5-(2-fluoro-4-(5-(2-((2S)-1-(N-(methoxycarbonyl)-L-alanyl)-2-pyrrolidinyl)-1H-imidazol-5-yl)-2-pyrimidinyl)phenyl)-1H-imidazol-2-yl)-1-pyrrolidinyl)-1-methyl-2-oxoethyl)carbamate] | 0.001 to 0.999
Cc1cc(-c2cnc([C@@H]3CCCN3C(=O)[C@@H](c3ccccc3)N(C)C)[nH]2)ccc1-c1ccc(-c2cnc([C@@H]3CCCN3C(=O)[C@@H](c3ccccc3)N(C)C)[nH]2)cc1C [Example 121, (1R,1′R)-2,2′-((2,2′-dimethyl-4,4′-biphenyldiyl)bis(1H-imidazole-5,2-diyl(2S)-2,1-pyrrolidinediyl))bis(N,N-dimethyl-2-oxo-1-phenylethanamine)] | 0.001 to 0.999
COC(=O)N[C@@H](C(=O)N1CCC[C@H]1c1ncc(-c2ccc(-c3ccc(-c4cnc([C@@H]5CCCN5C(=O)[C@H](NC(=O)OC)c5ccccc5)[nH]4)cn3)nc2)[nH]1)c1ccccc1 [Example 145, dimethyl(2,2′-bipyridine-5,5′-diylbis(1H-imidazole-5,2-diyl(2S)-2,1-pyrrolidinediyl((1R)-2-oxo-1-phenyl-2,1-ethanediyl)))biscarbamate] | 0.001 to 0.999
COC(=O)N[C@@H](C(=O)N1CCC[C@H]1c1ncc(-c2ccc(-c3ccc(-c4cnc([C@@H]5CCCN5C(=O)[C@@H](c5ccccc5)N(C)C)[nH]4)cc3C)cc2)[nH]1)c1ccccc1 [Example 126, methyl ((1R)-2-((2S)-2-(5-(4′-(2-((2S)-1-((2R)-2-(dimethylamino)-2-phenylacetyl)-2-pyrrolidinyl)-1H-imidazol-5-yl)-2′-methyl-4-biphenylyl)-1H-imidazol-2-yl)-1-pyrrolidinyl)-2-oxo-1-phenylethyl)carbamate] | 0.001 to 0.999
COC(=O)N[C@@H](C(=O)N(C)[C@@H](C)c1ncc(-c2ccc(-c3ncc(-c4cnc([C@@H]5CCCN5C(=O)[C@@H](c5ccccc5)N5CCCCC5)[nH]4)cn3)cc2)[nH]1)c1ccccc1 [Example 152l-1, methyl ((1R)-2-(methyl((1S)-1-(4-(4-(5-(2-((2S)-1-((2R)-2-phenyl-2-(1-piperidinyl)acetyl)-2-pyrrolidinyl)-1H-imidazol-5-yl)-2-pyrimidinyl)phenyl)-1H-imidazol-2-yl)ethyl)amino)-2-oxo-1-phenylethyl)carbamate] | 0.001 to 0.999
COC(=O)N[C@@H](C(=O)N1CCC[C@H]1c1ncc(-c2ccc(-c3ccc(-c4cnc([C@@H]5CCCN5C(=O)Cc5cccnc5)[nH]4)cc3C)cc2)[nH]1)c1ccccc1 [Example 127, methyl ((1R)-2-((2S)-2-(5-(2′-methyl-4′-(2-((2S)-1-(3-pyridinylacetyl)-2-pyrrolidinyl)-1H-imidazol-5-yl)-4-biphenylyl)-1H-imidazol-2-yl)-1-pyrrolidinyl)-2-oxo-1-phenylethyl)carbamate] | 0.001 to 0.999
CCN(CC)[C@@H](C(=O)N1CCC[C@H]1c1ncc(-c2cnc(-c3ccc(-c4[nH]c([C@@H]5CCCN5C(=O)[C@@H](c5ccccc5)N(CC)CC)nc4C(F)(F)F)cc3)nc2)[nH]1)c1ccccc1 [Example J47, (1R)-2-((2S)-2-(5-(4-(5-(2-((2S)-1-((2R)-2-(diethylamino)-2-phenylacetyl)-2-pyrrolidinyl)-1H-imidazol-5-yl)-2-pyrimidinyl)phenyl)-4-(trifluoromethyl)-1H-imidazol-2-yl)-1-pyrrolidinyl)-N,N-diethyl-2-oxo-1-phenylethanamine] | 0.001 to 0.999
COC(=O)N[C@@H](C(=O)N(C)[C@@H](C)c1ncc(-c2ccc(-c3ccc(-c4cnc([C@H](C)N(C)C(=O)[C@H](NC(=O)OC)c5ccccc5)[nH]4)cc3)cc2)[nH]1)c1ccccc1 [Example 24-18-1, dimethyl (4,4′-biphenyldiylbis (1H-imidazole-5,2-diyl(1S)-1,1-ethanediyl(methyl-imino)((1R)-2-oxo-1-phenyl-2,1-ethanediyl))) biscarbamate] | 0.001 to 0.999
COC(=O)N[C@@H](C(=O)N1CCC[C@H]1c1ncc(-c2ccc(-c3ccc(-c4cnc([C@@H]5CCCN5C(=O)[C@H](NC(=O)OC)c5ccccc5)[nH]4)cc3CN(C)C)cc2)[nH]1)c1ccccc1 [Example M121, dimethyl((2-((dimethylamino)methyl)-4,4′-biphenyldiyl)bis(1H-imidazole-5,2-diyl(2S)-2,1-pyrrolidinediyl((1R)-2-oxo-1-phenyl-2,1-ethanediyl)))biscarbamate] | 100 to 999
COCC[C@H](NC(=O)OC)C(=O)N[C@H](c1nc(-c2ccc(-c3ccc(-c4c[nH]c([C@@H]5CCCN5C(=O)[C@H](CCOC)NC(=O)OC)n4)cc3)cc2)c[nH]1)C(C)C [Example R20, methyl ((1S)-3-methoxy-1-(((2S)-2-(4-(4′-(2-((1S)-1-((N-(methoxycarbonyl)-O-methyl-L-homoseryl)amino)-2-methylpropyl)-1H-imidazol-4-yl)-4-biphenylyl)-1H-imidazol-2-yl)-1-pyrrolidinyl)carbonyl)propyl)carbamate] | 0.001 to 0.999
COC(=O)N[C@H](C(=O)N1CCC[C@H]1c1ncc(-c2ccc(-c3ccc(-c4cnc([C@@H]5CCCN5C(=O)[C@@H](NC(=O)OC)C(C)C)[nH]4)cc3C(=O)O)cc2)[nH]1)C(C)C [Example M114, 4,4′-bis(2-((2S)-1-(N-(methoxycarbonyl)-L-valyl)-2-pyrrolidinyl)-1H-imidazol-5-yl)-2-biphenylcarboxylic acid] | 1000 to 10000
COC(=O)N[C@H](C(=O)N1CCCC1c1ncc(-c2cc(C)c(-c3c(C)cc(-c4cnc([C@@H]5CCCN5C(=O)[C@@H](NC(=O)OC)C(C)C)[nH]4)cc3C)c(C)c2)[nH]1)C(C)C (some centres unmarked) [Example F71] | 0.001 to 0.999
COC(=O)N[C@H](C(=O)N[C@H](c1ncc(-c2ccc(-c3ccc(-c4cnc([C@@H]5CCCN5C(=O)[C@@H](NC(=O)OC)C(C)C)[nH]4)cc3)cc2)[nH]1)C(C)OCc1ccccc1)C(C)C (some centres unmarked) [Example R34] | 0.001 to 0.999
COC(=O)N[C@@H](C(=O)N[C@@H](C)c1ncc(-c2cnc(-c3ccc(-c4cnc([C@@H]5CCCN5C(=O)[C@H](NC(=O)OC)c5ccccc5)[nH]4)cc3)cn2)[nH]1)c1ccccc1 [Example 152j-19, methyl ((1R)-2-((2S)-2-(5-(4-(5-(2-((1S)-1-(((2R)-2-((methoxycarbonyl)amino)-2-phenylace-tyl)amino)eth-yl)-1H-imidazol-5-yl)-2-pyrazinyl)phenyl)-1H-imidazol-2-yl)-1-pyrrolidinyl)-2-oxo-1-phenylethyl)carbamate] | 0.001 to 0.999

Same assay, conditions: Table 2, listed as 151 isomer 2, read-out: Range (EC50 against HCV 1b)

SMILES | EC50 [nM]
CN(C)[C@@H](C(=O)N1CCC[C@H]1c1nc(-c2ccc(-c3ccc(-c4cn(C)c([C@@H]5CCCN5C(=O)[C@@H](c5ccccc5)N(C)C)n4)cc3)cc2)cn1C)c1ccccc1 (single isomer, unassigned) [Example 151 isomer 2] | 100 to 999
